# Values quoted from earlier work, collected in patent US20200046643A1, “EXTENDED RELEASE FORMULATIONS OF CANNABINOIDS” (Glatt GmbH, priority 2018, published 2020).
# Key:
# [1] = after oral administration
SMILES,solubility in organic solvents (organic solvents),solubility in water,duration of action [1] [h],duration of appetite-increasing action [1],duration of psychoactive action [1] [h]
"C=C(C)[C@@H]1CCC(C)=C[C@H]1c1c(O)cc(CCCCC)cc1O [CBD, cannabidiol]",soluble in organic solvents,insoluble in water,–,–,–
"CCCCCc1cc(O)c2c(c1)OC(C)(C)[C@@H]1CCC(C)=C[C@@H]21 [THC, Δ9-tetrahydrocannabinol]",–,–,2 to 4,up to 24 hours,4 to 6
CCCCCc1cc(O)c2c(c1)OC(C)(C)[C@@H]1CCC(C)=C[C@@H]21 [dronabinol],–,insoluble in water,–,–,–
